# Measured values taken from paper PMC3038857, “Using Nuclear Receptor Activity to Stratify Hepatocarcinogens” (PLoS ONE, 2011).
# Read-outs that look alike come from different tables or passages of the source.
# How the values were obtained:
# [1] = tested on: Rat Liver; conditions: ref ToxRefDB, cited from earlier work
# [2] = tested on: Rat Liver; conditions: ref ToxRefDB, cited from earlier work; remark: listed apart in the source
# [3] = tested on: Rat Liver; conditions: ref ToxRefDB, cited from earlier work; remark: listed apart in the source
# [4] = tested on: Mouse Liver; conditions: liver, ref ToxRefDB, cited from earlier work
# [5] = tested on: CYP2B6; test: CLZD_CYP2B6: Change in expression of CYP2B6 (primary human hepatocytes); type: cell-based; conditions: 24 hr
# Method: This is a collection of multiplexed gene expression assays focused on Phase I and II xenobiotic metabolizing enzymes and transporters. Human primary cell cultures were treated with chemicals at 5 concentrations (0.004-40 [drawing 42] M) for 6, 24 and 48 hr. Concentration- and time-response profiles of chemicals were measured by the expression of key nuclear receptor target genes, activities of CYP1A enzymes (EROD), and cell morphology. Fourteen gene targets were monitored by quantitative nuclease protection assay including: six representative cytochrome P-450 genes, four hepatic transporters, three Phase II conjugating enzymes, and one endogenous metabolism gene involved in cholesterol synthesis. The target genes associated with nuclear receptor pathways are as follows: [drawing 43] and [drawing 44] with [drawing 45]; [drawing 46] , [drawing 47] , [drawing 48] , [drawing 49] , [drawing 50] and [drawing 51] with [drawing 52]; [drawing 53] , [drawing 54] , [drawing 55] and [drawing 56] with [drawing 57]; [drawing 58] with [drawing 59]; and [drawing 60] with [drawing 61] . Assays were run in primary human hepatocyte cultures by CellzDirect Invitrogen Inc. (Durham, NC), in collaboration with EPA.
# Multiplexed Gene Expression in Human Primary Hepatocytes: This is a collection of multiplexed gene expression assays focused on Phase I and II metabolic enzymes and transporters. […] Fourteen gene targets were monitored by quantitative nuclease protection assay: six representative cytochrome P450 genes, four hepatic transporters, three Phase II conjugating enzymes, and one endogenous metabolism gene involved in cholesterol synthesis. Cells were exposed at 5 concentrations (0.004-40 µM) for 6, 24 or 48 hr. Gene targets are sentinels for five nuclear receptor signaling pathways: AhR, CAR, PXR, FXR, and PPARα. All gene are associated with nuclear receptor pathways: CYP1A1 and CYP1A2 with AHR; ABCB1, ABCG2, CYP2B6, CYP2C9, CYP2C19 and UGT1A1 with CAR; CYP3A4, GSTA2, SLCO1B1 and SULT2A1 with PXR; HMGCS2 with PPARA; and ABCB11 with FXR. […] Detailed description of the methods, data and analysis methods for this dataset will be presented in a separate publication.
# [6] = biological target: T1, PXR (NR1I2) (Homo sapiens, UniProt O75469); test: ATG_PXRE_CIS: Factorial reporter gene assay (HepG2); type: cell-based; parameters: endogenous in cells; host or cells: HepG2
# T1 sequence (O75469 1-434): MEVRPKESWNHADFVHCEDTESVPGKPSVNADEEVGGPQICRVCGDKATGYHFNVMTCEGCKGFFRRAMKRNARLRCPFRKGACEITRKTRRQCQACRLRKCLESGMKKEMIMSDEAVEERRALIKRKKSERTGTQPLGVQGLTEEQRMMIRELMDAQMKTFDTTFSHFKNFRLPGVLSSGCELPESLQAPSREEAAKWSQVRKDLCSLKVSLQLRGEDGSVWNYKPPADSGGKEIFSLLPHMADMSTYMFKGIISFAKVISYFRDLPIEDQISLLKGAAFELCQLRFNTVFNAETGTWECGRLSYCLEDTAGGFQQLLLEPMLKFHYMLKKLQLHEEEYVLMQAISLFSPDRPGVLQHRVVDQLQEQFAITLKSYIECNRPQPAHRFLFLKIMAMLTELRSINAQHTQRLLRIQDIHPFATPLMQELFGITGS
# Method: A multiple reporter transcription unit (MRTU) library consisting of 48 transcription factor binding sites was transfected into the HepG2 human liver hepatoma cell line. In addition to the cis-acting reporter genes (CIS), a modification of the approach was used to generate a trans-system (TRANS) with a mammalian one-hybrid assay consisting of an additional 25 MRTU library reporting the activity of nuclear receptor super-family members. […] These assays were performed by Attagene Inc. (Morrisville NC) under contract to EPA.
# In addition to the cis-acting reporter genes (CIS), a modification of the approach was used to generate a trans-system (TRANS) with a mammalian one-hybrid assay consisting of an additional 25 MRTU library reporting the activity of nuclear receptor super-family members. […] Chemicals were then tested in the CIS and TRANS assays at seven concentrations starting at the MTC and followed by three-fold serial dilutions. These assays were performed by Attagene Inc. (Morrisville NC) under contract to EPA. Detailed description of the methods, data and analysis methods for this dataset will be presented in a separate publication.
# [7] = rat chronic study, liver, coded 6 / 0, code not explained in table
# [8] = rat chronic study, liver, any lesion, coded 6 / 0, code not explained in the table
# [9] = rat chronic study, liver, neoplastic lesion, coded 6 / 0, code not explained in the table
# [10] = rat chronic study, liver, preneoplastic lesion, coded 6 / 0, code not explained in the table
# [11] = mouse chronic study, any lesion, coded 6 / Inf, code not explained in the table
# [12] = mouse chronic study, coded 6 / Inf, code not explained in table
Structure (SMILES),"CHR_Rat_Liver_1_AnyLesion [1, 7]","CHR_Rat_Liver_3_NeoplasticLesion [2, 7]","CHR_Rat_Liver_2_PreneoplasticLesion [3, 7]","CHR_Rat_Liver_1_AnyLesion [1, 8]","CHR_Rat_Liver_3_NeoplasticLesion [2, 9]","CHR_Rat_Liver_2_PreneoplasticLesion [3, 10]",further results
c1ccc2[nH]c(-c3cscn3)nc2c1 [chemical 294],6,0,0,,,,
CSC(=O)c1cccc2nnsc12 [Dataset S3 row 13],,,,6,0,0,"CHR_Mouse_Liver_1_AnyLesion [4, 11]: 6"
CCc1cccc(CC)c1N(COC)C(=O)CCl [Dataset S3 row 15],,,,6,0,0,
CCCN(CCC)c1c([N+](=O)[O-])cc(C(F)(F)F)cc1[N+](=O)[O-] [chemical 316],0,0,0,,,,
Clc1nc(Cl)nc(Nc2ccccc2Cl)n1 [Dataset S3 row 19],,,,0,0,0,
CC1(C)CCC(=Cc2ccc(Cl)cc2)C1(O)Cn1cncn1 (stereo not shown) [chemical 318],6,0,0,,,,"CHR_Mouse_Liver_1_AnyLesion [4, 12]: 6"
CCON=C(CC)C1=C(O)CC(c2c(C)cc(C)cc2C)CC1=O (stereo not shown) [chemical 303],6,0,6,,,,
CSc1nnc(C(C)(C)C)c(=O)n1N [row 209],,,,,,,"CLZD_CYP2B6_24 [5]: 5.115; CHR_Rat_Liver_1_AnyLesion ([1]; chronic rat study, liver): 0; CHR_Rat_Liver_3_NeoplasticLesion ([2]; chronic rat study, liver): 0; CHR_Rat_Liver_2_PreneoplasticLesion ([3]; chronic rat study, liver): 0"
CNC(=O)Oc1cccc2c1OC(C)(C)O2 [Dataset S3 row 25],,,,0,0,0,
CCOCN(C(=O)CCl)c1c(C)cccc1CC [Dataset S3 row 12],,,,6,6,6,
CCCOC(=O)NCCCN(C)C.Cl [r257],,,,,,,"CHR_Rat_Liver_1_AnyLesion ([1]; rat, chronic study): 0; CHR_Rat_Liver_3_NeoplasticLesion ([2]; rat, chronic study): 0; CHR_Rat_Liver_2_PreneoplasticLesion ([3]; rat, chronic study): 0"
Oc1cc(Cl)ccc1Oc1ccc(Cl)cc1Cl [chemical 312],6,0,0,,,,
CCC(=O)Nc1ccc(Cl)c(Cl)c1 [r258],,,,,,,"CHR_Rat_Liver_1_AnyLesion ([1]; rat, chronic study): 6; CHR_Rat_Liver_3_NeoplasticLesion ([2]; rat, chronic study): 0; ATG_PXRE_CIS ([6]; HepG2): 4.337; CHR_Rat_Liver_2_PreneoplasticLesion ([3]; rat, chronic study): 6"
FC(F)C(F)(F)OCC(Cn1cncn1)c1ccc(Cl)cc1Cl (stereo not shown) [chemical 292],6,0,6,,,,
C/C(=N\C#N)N(C)Cc1ccc(Cl)nc1 [Dataset S3 row 11],,,,6,0,0,"CHR_Mouse_Liver_1_AnyLesion [4, 11]: 6"
COC(=O)NS(=O)(=O)c1ccc(N)cc1 [Dataset S3 row 20],,,,0,0,0,"CHR_Mouse_Liver_1_AnyLesion [4, 11]: 6"
O=C(O)COc1ccc(Cl)cc1Cl [Dataset S3 row 2],,,,6,0,0,
COC(=O)c1ccc(CNS(C)(=O)=O)cc1S(=O)(=O)NC(=O)Nc1nc(OC)cc(OC)n1 [row 194],,,,,,,"CHR_Rat_Liver_1_AnyLesion ([1]; chronic rat study, liver): 0; CHR_Rat_Liver_3_NeoplasticLesion ([2]; chronic rat study, liver): 0; CHR_Rat_Liver_2_PreneoplasticLesion ([3]; chronic rat study, liver): 0; CHR_Mouse_Liver_1_AnyLesion ([4]; chronic mouse study): 6"

Structure (SMILES),"CHR_Rat_Liver_1_AnyLesion [1, 7]","CHR_Rat_Liver_3_NeoplasticLesion [2, 7]","CHR_Rat_Liver_2_PreneoplasticLesion [3, 7]","CHR_Rat_Liver_1_AnyLesion [1, 8]","CHR_Rat_Liver_3_NeoplasticLesion [2, 9]","CHR_Rat_Liver_2_PreneoplasticLesion [3, 10]",further results
CCC(C)(NC(=O)c1cc(Cl)c(C)c(Cl)c1)C(=O)CCl (stereo not shown) [chemical 320],0,0,0,,,,
O=C(O)CCCOc1ccc(Cl)cc1Cl [Dataset S3 row 3],,,,6,0,0,"CHR_Mouse_Liver_1_AnyLesion [4, 11]: 6"
CO/N=C(/C(=O)OC)c1ccccc1CON=C(C)c1cccc(C(F)(F)F)c1 [chemical 313],0,0,0,,,,"CHR_Mouse_Liver_1_AnyLesion [4, 12]: 6"
CCS(=O)(=O)c1cccnc1S(=O)(=O)NC(=O)Nc1nc(OC)cc(OC)n1 [r281],,,,,,,"CHR_Rat_Liver_1_AnyLesion ([1]; chronic study, rat liver): 6; CHR_Rat_Liver_3_NeoplasticLesion ([2]; chronic study, rat liver): 0; CHR_Rat_Liver_2_PreneoplasticLesion ([3]; chronic study, rat liver): 6"
CNC(=O)ON=CC(C)(C)SC [Dataset S3 row 16],,,,0,0,0,
COC(=O)c1ccccc1S(=O)(=O)NC(=O)N(C)c1nc(C)nc(OC)n1 [chemical 308],0,0,0,,,,
CNC(=O)ON=C(C)SC [row 200],,,,,,,"CHR_Rat_Liver_1_AnyLesion ([1]; chronic rat study, liver): 0; CHR_Rat_Liver_3_NeoplasticLesion ([2]; chronic rat study, liver): 0; CHR_Rat_Liver_2_PreneoplasticLesion ([3]; chronic rat study, liver): 0"
CCNc1nc(Cl)nc(NC(C)C)n1 [Dataset S3 row 21],,,,0,0,0,
COC=C(C(=O)OC)c1ccccc1Oc1cc(Oc2ccccc2C#N)ncn1 [Dataset S3 row 24],,,,6,0,6,
CNC(=O)ON=C(SC)C(=O)N(C)C [r231],,,,,,,"CHR_Rat_Liver_1_AnyLesion ([1]; rat, chronic study): 0; CHR_Rat_Liver_3_NeoplasticLesion ([2]; rat, chronic study): 0; ATG_PXRE_CIS ([6]; HepG2): 4.481; CHR_Rat_Liver_2_PreneoplasticLesion ([3]; rat, chronic study): 0"
COCCO [row 203],,,,,,,ATG_PXRE_CIS ([6]; HepG2): 4.602
O=C(O)c1c(Cl)ccc2cc(Cl)cnc12 [r276],,,,,,,"CHR_Rat_Liver_1_AnyLesion ([1]; chronic study, rat liver): 0; CHR_Rat_Liver_3_NeoplasticLesion ([2]; chronic study, rat liver): 0; CHR_Rat_Liver_2_PreneoplasticLesion ([3]; chronic study, rat liver): 0"
N#C/N=C1\SCCN1Cc1ccc(Cl)nc1 [chemical 295],6,0,0,,,,"CHR_Mouse_Liver_1_AnyLesion [4, 12]: 6"
CCNc1nc(NC(C)C)nc(SC)n1 [Dataset S3 row 17],,,,6,6,6,
CN(C)C(=S)SSC(=S)N(C)C [chemical 302],6,0,6,,,,
COc1cc(OC)nc(NC(=O)[N-]S(=O)(=O)c2ncccc2OCC(F)(F)F)n1.[Na+] [chemical 314],0,0,0,,,,
CNC(=O)N(C)c1nnc(C(C)(C)C)s1 [r293],,,,,,,ATG_PXRE_CIS ([6]; HepG2 reporter): 4.357
